Assay results: patent publication US9676789B2, “Aminated derivative of homoharringtonine, preparation method therefor, and application thereof” (HANGZHOU BENSHENG PHARMACEUTICAL CO., LTD., priority 2011, dated 2017)
In brackets after ≈: the same amount, converted by molar mass.

How the values were obtained:
[1] = tested on: K562/adr (drug-resistant, chronic myeloid leukemia, CML); assay: MTT leukemia cell growth inhibition, 72 h; format: cell-based, human; details: Homo sapiens, K562/Adr; for IC50: read-out: IC50; for IC90: read-out: IC90
Source text: (§1) Leukemia cell lines: K562/adr (drug-resistant, chronic myeloid leukemia, CML), NB4 (acute promyelocytic leukemia, AML), Kasumi-1 (acute myeloid leukemia M2 type, AML-M2), Jurkat (acute lymphoblastic leukemia, ALL), all of which are donated by Cancer Research Institute of Zhejiang University, China; and H9 (acute lymphoblastic leukemia, ALL), which is purchased from China Center for Type Culture Collection.
(§2) Obtaining 6000 well-growing leukemia cells and inoculating them into wells of a 96-well cell culture plate. The culture medium is the 1640 cell culture medium containing 10% fetal bovine serum. After adding the homoharringtonine derivatives of different concentrations and mixing uniformly, placing the plate in a carbon dioxide cell incubator (5% CO2) at 37° C. and incubating for 72 hours. Then the viable cell concentration is determined by the MTT method. In this experiment, the cell viability in control group (not treated with any compound) is set as 100%.

[2] = tested on: Kasumi-1 (acute myeloid leukemia M2 type, AML-M2); assay: MTT leukemia cell growth inhibition, 72 h; format: cell-based, human; details: Homo sapiens, Kasumi-1, 72 h; for IC50: read-out: IC50; for IC90: read-out: IC90
Source text: as §1, §2

[3] = tested on: H9 (acute lymphoblastic leukemia, ALL); assay: MTT leukemia cell growth inhibition, 72 h; format: cell-based, human; details: Homo sapiens, H9, 72 h; for IC50: read-out: IC50; for IC90: read-out: IC90
Source text: as §1, §2

[4] = tested on: NB4 (acute promyelocytic leukemia, AML); assay: MTT leukemia cell growth inhibition, 72 h; format: cell-based, human; details: Homo sapiens, NB4, 72 h; for IC50: read-out: IC50; for IC90: read-out: IC90
Source text: as §1, §2

[5] = tested on: Jurkat (acute lymphoblastic leukemia, ALL); assay: MTT leukemia cell growth inhibition, 72 h; format: cell-based, human; details: Homo sapiens; for IC50: read-out: IC50; for IC90: read-out: IC90
Source text: as §1, §2

[6] = tested on: RPMI8226 (multiple myeloma); assay: MTT multiple myeloma cell growth inhibition, 72 h; format: cell-based, human; details: Homo sapiens, RPMI-8226, RPMI8226, 72 h; for IC50: read-out: IC50; for IC90: read-out: IC90
Procedure: Multiple myeloma and lymphoma cell lines: RPMI8226 (multiple myeloma), purchased from Fuxiang Bio-tech Co. Ltd., Shanghai, China.
Obtaining 6000 well-growing leukemia cells and inoculating them into wells of a 96-well cell culture plate. The culture medium is the 1640 cell culture medium containing 10% fetal bovine serum. After adding the homoharringtonine derivatives of different concentrations and mixing uniformly, placing the plate in a carbon dioxide cell incubator (5% CO2) at 37° C. and incubating for 72 hours. Then the viable cell concentration is determined by the MTT method.

[7] = tested on: PANC-1 (pancreatic cancer); assay: MTT solid tumor cell growth inhibition, 72 h; format: cell-based, human; details: Homo sapiens, PANC-1, 72 h; for IC50: read-out: IC50; for IC90: read-out: IC90
Procedure: (§3) Human solid tumor cell lines: Hep-2 ([…]), A549 (human lung cancer), CaES-17 (esophageal cancer cell), PC-3 (prostate cancer), CNE (nasopharyngeal carcinoma cell), and SK-OV-3 (ovarian cancer cell), all of which are purchased from China Center For Type Culture Collection; RKO (human colon adenocarcinoma cell), MGC 803 (human gastric cancer cell), MG63 (osteosarcoma) and U87 MG (malignant glioma cell), all of which are purchased from Fuxiang Bio-tech Co. Ltd., Shanghai, China; PANC-1 (pancreatic cancer), Huh7 (human liver cancer cell), Becap37 (human breast cancer cell), and Hela (human cervical cancer cell), all of which are donated by Cancer Research Institute of Zhejiang University, China.
(§4) Obtaining 4000 well-growing human solid tumor cells and inoculating them into wells of a 96-well cell culture plate. The culture medium is DMEM High Glucose cell culture medium containing 10% fetal bovine serum. The plate is placed in a carbon dioxide cell incubator (5% CO2) at 37° C. and incubating for 24 hours. After adding the homoharringtonine derivatives of different concentration and mixing uniformly, the plate is placed in a carbon dioxide cell incubator (5% CO2) at 37° C. and incubating for 72 hours. Then the viable cell concentration is determined by the MTT method and the cell viability (%) after drug treatment is calculated. In this experiment, the cell viability of control group (not treated with any compound) is set as 100%.

MG63 (osteosarcoma) = assay: MTT solid tumor cell growth inhibition, 72 h; format: cell-based, human; details: Homo sapiens, MG 63, 72 h; for IC50: read-out: IC50; for IC90: read-out: IC90
Procedure: as §3, §4

[8] = tested on: Huh7 (human liver cancer cell); assay: MTT solid tumor cell growth inhibition, 72 h; format: cell-based; details: Homo sapiens, Huh-7, Huh7, 72 h; for IC50: read-out: IC50; for IC90: read-out: IC90
Procedure: as §3, §4

[9] = tested on: Becap37 (human breast cancer cell); assay: MTT solid tumor cell growth inhibition, 72 h; format: cell-based; details: Homo sapiens, Becap37, 72 h; for IC50: read-out: IC50; for IC90: read-out: IC90
Procedure: as §3, §4

[10] = tested on: RKO (human colon adenocarcinoma cell); assay: MTT solid tumor cell growth inhibition, 72 h; format: cell-based; details: Homo sapiens; for IC50: read-out: IC50; for IC90: read-out: IC90
Procedure: as §3, §4

A549 (human lung cancer) = assay: MTT solid tumor cell growth inhibition, 72 h; format: cell-based; details: Homo sapiens, A549, 72 h; for IC50: read-out: IC50; for IC90: read-out: IC90
Procedure: as §3, §4

[11] = tested on: MGC 803 (human gastric cancer cell); assay: MTT solid tumor cell growth inhibition, 72 h; format: cell-based; details: Homo sapiens, MGC 803, 72 h; for IC50: read-out: IC50; for IC90: read-out: IC90
Procedure: as §3, §4

SMILES	IC50 [1] [µg/mL]	IC90 [1] [µg/mL]	IC50 [2] [µg/mL]	IC90 [2] [µg/mL]	IC50 [3] [µg/mL]	IC90 [3] [µg/mL]	IC50 [4] [µg/mL]	IC90 [4] [µg/mL]	IC50 [5] [µg/mL]	IC90 [5] [µg/mL]	IC50 [6] [µg/mL]	IC90 [6] [µg/mL]	IC50 [7] [µg/mL]	IC90 [7] [µg/mL]	IC50 (MG63 (osteosarcoma)) [µg/mL]	IC90 (MG63 (osteosarcoma)) [µg/mL]	IC50 [8] [µg/mL]	IC90 [8] [µg/mL]	IC50 [9] [µg/mL]	IC90 [9] [µg/mL]	further results
COC1=C[C@]23CCCN2CCc2cc4c(cc2[C@@H]3[C@@H]1OC(=O)[C@@](O)(CCCC(C)(C)O)CC(=O)N1CCN(C)CC1)OCO4 [BS-HH-009]	> 16	> 16	8.54 (≈ 13.9 µM)	> 16	8 (≈ 13 µM)	> 16	2.97 (≈ 4.84 µM)	11.2 (≈ 18.2 µM)	3 (≈ 4.89 µM)	> 16	3.6 (≈ 5.87 µM)	16 (≈ 26.1 µM)	16 (≈ 26.1 µM)	> 16	1.72 (≈ 2.8 µM)	> 16	6.7 (≈ 10.9 µM)	> 16	3.09 (≈ 5.03 µM)	> 16	IC50 [10]: 1.46 µg/mL (≈ 2.38 µM); IC90 [10]: 5.72 µg/mL (≈ 9.32 µM); IC50 (A549 (human lung cancer)): 10.2 µg/mL (≈ 16.7 µM); IC90 (A549 (human lung cancer)): > 16 µg/mL
COC1=C[C@]23CCCN2CCc2cc4c(cc2[C@@H]3[C@@H]1OC(=O)[C@@](O)(CCCC(C)(C)O)CC(=O)N1CCOCC1)OCO4 [BS-HH-011]	> 16	> 16	8.28 (≈ 13.8 µM)	> 16	> 16	> 16	3.22 (≈ 5.36 µM)	9.54 (≈ 15.9 µM)	6.7 (≈ 11.2 µM)	> 16	6.71 (≈ 11.2 µM)	> 16	> 16	> 16	6.33 (≈ 10.5 µM)	> 16	16 (≈ 26.6 µM)	> 16	11.3 (≈ 18.8 µM)	> 16	IC50 [10]: 4 µg/mL (≈ 6.66 µM); IC90 [10]: > 16 µg/mL; IC50 (A549 (human lung cancer)): > 16 µg/mL; IC90 (A549 (human lung cancer)): > 16 µg/mL
COC1=C[C@]23CCCN2CCc2cc4c(cc2[C@@H]3[C@@H]1OC(=O)[C@@](O)(CCCC(C)(C)O)CC(=O)NCc1ccco1)OCO4 [BS-HH-043]	> 16	> 16	11.1 (≈ 18.1 µM)	> 16	> 16	> 16	15 (≈ 24.6 µM)	> 16	13 (≈ 21.3 µM)	> 16	> 16	> 16	> 16	> 16	> 16	> 16	> 16	> 16	> 16	> 16	IC50 (A549 (human lung cancer)): > 16 µg/mL; IC90 (A549 (human lung cancer)): > 16 µg/mL; IC50 [11]: > 16 µg/mL; IC90 [11]: > 16 µg/mL
COC1=C[C@]23CCCN2CCc2cc4c(cc2[C@@H]3[C@@H]1OC(=O)[C@@](O)(CCCC(C)(C)O)CC(=O)N1CCCCC1)OCO4 [BS-HH-051]	> 16	> 16	2 (≈ 3.34 µM)	16 (≈ 26.7 µM)	7.26 (≈ 12.1 µM)	> 16	1.5 (≈ 2.51 µM)	16 (≈ 26.7 µM)	1.3 (≈ 2.17 µM)	> 16	1.7 (≈ 2.84 µM)	16 (≈ 26.7 µM)	6.84 (≈ 11.4 µM)	> 16	2.72 (≈ 4.54 µM)	> 16	> 16	> 16	1.99 (≈ 3.32 µM)	> 16	IC50 (A549 (human lung cancer)): 6.96 µg/mL (≈ 11.6 µM); IC90 (A549 (human lung cancer)): > 16 µg/mL; IC50 [11]: 1.9 µg/mL (≈ 3.17 µM); IC90 [11]: 26.7 µg/mL (≈ 44.6 µM)
COC1=C[C@]23CCCN2CCc2cc4c(cc2[C@@H]3[C@@H]1OC(=O)[C@@](O)(CCCC(C)(C)O)CC(=O)N1CCC(C#N)CC1)OCO4 [BS-HH-035]	14.1 (≈ 22.6 µM)	> 16	0.8 (≈ 1.28 µM)	2.96 (≈ 4.75 µM)	5.49 (≈ 8.8 µM)	> 16	0.72 (≈ 1.15 µM)	6.3 (≈ 10.1 µM)	0.87 (≈ 1.39 µM)	> 16	1.44 (≈ 2.31 µM)	14.1 (≈ 22.7 µM)	5.02 (≈ 8.05 µM)	> 16	1.98 (≈ 3.17 µM)	> 16	4.46 (≈ 7.15 µM)	> 16	3.75 (≈ 6.01 µM)	> 16	IC50 (A549 (human lung cancer)): 5.41 µg/mL (≈ 8.67 µM); IC90 (A549 (human lung cancer)): > 16 µg/mL; IC50 [11]: 1.79 µg/mL (≈ 2.87 µM); IC90 [11]: 9.2 µg/mL (≈ 14.7 µM)
CCN1CCN(C(=O)C[C@](O)(CCCC(C)(C)O)C(=O)O[C@@H]2C(OC)=C[C@]34CCCN3CCc3cc5c(cc3[C@H]24)OCO5)CC1 [BS-HH-041]	> 16	> 16	2.79 (≈ 4.44 µM)	15 (≈ 23.9 µM)	3.2 (≈ 5.1 µM)	> 16	1.85 (≈ 2.95 µM)	16 (≈ 25.5 µM)	0.89 (≈ 1.42 µM)	> 16	1.96 (≈ 3.12 µM)	13.4 (≈ 21.3 µM)	6.35 (≈ 10.1 µM)	> 16	1.97 (≈ 3.14 µM)	> 16	16 (≈ 25.5 µM)	> 16	0.9 (≈ 1.43 µM)	> 16	IC50 (A549 (human lung cancer)): 8.11 µg/mL (≈ 12.9 µM); IC90 (A549 (human lung cancer)): > 16 µg/mL; IC50 [11]: 1 µg/mL (≈ 1.59 µM); IC90 [11]: 11.8 µg/mL (≈ 18.9 µM)
